Assay results published in PubChem BioAssay (NCI).
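Each compound was tested at five concentrations against cells in 96-well plates for 48 hours. The concentration for 50% growth inhibition is given as GI50. TGI: total growth inhibition.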

How the values were obtained:
Experiment in all cases: NCI tumour cell line growth inhibition, 48 h
A549 NSCLC = test system: A549 NSCLC
HCC-2998 colon = test system: HCC-2998 colon
MALME-3M melanoma = test system: MALME-3M melanoma
MCF7 breast = test system: MCF7 breast
MDA-N = test system: MDA-N
NCI-H226 lung = test system: NCI-H226 lung
NCI/ADR-RES ovarian = test system: NCI/ADR-RES ovarian
OVCAR-3 ovarian = test system: OVCAR-3 ovarian
PC-3 prostate = test system: PC-3 prostate
SW-620 colon = test system: SW-620 colon

Row | Structure (SMILES) | TGI (A549 NSCLC) [µM] | TGI (HCC-2998 colon) [µM] | TGI (MALME-3M melanoma) [µM] | TGI (MCF7 breast) [µM] | TGI (MDA-N) [µM] | TGI (NCI-H226 lung) [µM] | TGI (NCI/ADR-RES ovarian) [µM] | TGI (OVCAR-3 ovarian) [µM] | TGI (PC-3 prostate) [µM] | TGI (SW-620 colon) [µM] | GI50 (MALME-3M melanoma) [µM]
1 | CN(C)CCNc1ccc2c(=O)n(CCN(C)C)c(=O)n3c4ccc(O)cc4c(=O)c1c23 | 1.47 | 0.186 | 0.45 | 0.634 | 0.26 | 0.322 | 9.39 | 1.29 | 4.52 | 0.67 | 
2 | CCOC(=O)c1c(C)n(Cc2ccc(Cl)cc2Cl)c2c1cc(O)c1[nH]c3c(c12)CCCC3 | > 100 | 63 | 43.2 | 52 | 45.6 | 45.5 | 43.4 | > 100 | 40.9 | > 100 | 
3 | C=CCn1c(=O)c(C)cn(COCCO)c1=O | > 100 | > 100 | > 100 | > 100 | > 100 | > 100 | > 100 | > 100 | > 100 | > 100 | 
4 | CC(=O)c1c(-c2cccc3ccccc23)c(C#N)c(=S)n(C2OC(CO)C(O)C(O)C2O)c1C (stereo unspecified) | > 100 | > 100 | > 100 | > 100 | > 100 | > 100 | > 100 | > 100 | > 100 | > 100 | > 100
5 | O=[N+]([O-])c1ccccc1OCCOc1ccccc1[N+](=O)[O-] | > 100 | > 100 | > 100 | > 100 | > 100 | > 100 | > 100 | > 100 | > 100 | > 100 | 
6 | CC1CC[C@@]2(OC1)OC1C[C@H]3[C@@H]4CC=C5CC(OC6OC(CO)C(OC7OC(CO)C(O)C(OC8OCC(O)C(O)C8O)C7OC7OC(CO)C(OC8OC(C)C(OC9OC(C)C(O)C(O)C9O)C(O)C8O)C(O)C7O)C(O)C6O)CCC5(C)[C@H]4CCC3(C)C1[C@@H]2C (stereo partly specified) | 14.5 | 14.1 | 20.1 | 26.8 | 16.2 | 18.1 | 17.8 | 20.7 | 11.7 | 22.9 | 
7 | S=C1c2ccc(Cl)cc2-n2cnnc2C2CSCN12 (stereo unspecified) | > 100 | > 100 | > 100 | > 100 | > 100 | > 100 | > 100 | > 100 | > 100 | > 100 | 
8 | Cc1cc(C)nc(NS(=O)(=O)c2ccc(NC(=O)c3c4ccccc4nc4ccccc34)cc2)n1 | > 100 | > 100 | > 100 | > 100 | > 100 | > 100 | > 100 | > 100 | > 100 | > 100 | 
9 | COc1ccc(N2C(=O)C3c4[nH]c5ccc(OCc6ccccc6)cc5c4C4CCC(c5ccccc5)CC4C3C2=O)cc1 (stereo unspecified) | > 39 | > 100 | 45.6 | > 75 | > 100 | > 83.8 | > 100 | > 89 | 96.5 | 4.61 | 
10 | CC(=O)NC1C(OCc2ccccc2)OC(CO)C(O)C1OCC(=O)N1CCCC1C(=O)N[C@@H](CCC(=O)NCCCCNc1c2ccccc2nc2cccc([N+](=O)[O-])c12)C(N)=O (stereo partly specified) | 37.8 | 52.4 | > 100 | 53.8 | 30.6 | > 100 | > 100 | 61.9 | 60.3 | 65.7 | 
11 | c1ccc(/C(=N/Nc2nc3ccccc3s2)C2CCCCC2)nc1 | 76.1 | 0.0519 | 20.9 | 6.01 | 34.2 | 27.5 | 10.3 | 7.6 | 24.3 | 20.1 | 
12 | O=C(O)CN(CC(=O)O)C1CCCCC1N1CC(=O)OC(=O)C1 (stereo unspecified) | > 100 | > 100 | > 100 | > 100 | > 100 | > 100 | > 100 | > 100 | > 100 | > 100 | 
13 | O=C(O)CC(Cc1ccccc1Cl)C(=O)O (stereo unspecified) | > 100 | > 100 | > 100 | > 100 | > 100 | > 100 | > 100 | > 100 | > 100 | > 100 | 
14 | N#Cc1c(-c2ccc(Cl)cc2)c2c(nn3c4ccc5ccccc5c4nnc23)[nH]c1=O | 20.8 | 8.87 | 3.83 | 14.8 | 5.78 | > 52.5 | 26 | 3.62 | 7 | 11.4 | 
15 | CN(C)CC(O)c1ccc(Cl)c2ccccc12 (stereo unspecified) | > 100 | 29.9 | 86 | > 81.8 | > 63.8 | > 57 | > 100 | > 100 | > 72.3 | > 100 | 
16 | Cc1ccc(Nc2nc3[nH]ccc3c(=O)[nH]2)cc1 | > 100 | > 100 | > 100 | > 100 | > 100 | > 100 | > 100 | > 100 | > 100 | > 100 | 
17 | Oc1cc(Cc2ccccc2)c(Cc2ccccc2)cc1O | > 10 | > 10 | > 10 | > 10 | 3.04 | > 10 | > 10 | > 10 | > 10 | > 10 | 
18 | OC1[C@@H]2[C@@H](O)CCCN2C[C@@H](O)[C@H]1O (stereo partly specified) | > 100 | > 100 | > 100 | > 100 | > 100 | > 100 | > 100 | > 100 | > 100 | > 100 | 
19 | COc1ccc2c(c1)C(=O)CC1c3cnccc3C(=O)N21 (stereo unspecified) | > 100 | > 100 | > 100 | > 100 | > 100 | > 100 | > 100 | > 100 | > 100 | > 100 | 
20 | CC(C)/C(Cl)=N/OC(=O)Nc1ccc(Br)cc1 | 39.5 | 29.4 | 3.85 | 24.9 | 15.7 | 30.5 | 27.8 | 9.5 | 26.7 | 4.6 | 
21 | COc1cccc(N2C(=O)CSC2c2cccc(Oc3ccccc3)c2)c1 (stereo unspecified) | > 100 | 7.23 | 53.7 | 7.13 | 5.53 | 69.1 | 40.4 | 92.9 | > 100 | > 100 | 
22 | C#CCNC(CSSCC(N)C(=O)O)C(=O)O (stereo unspecified) | > 100 | > 100 | > 100 | > 100 | > 100 | > 100 | > 100 | > 100 | > 100 | > 100 | 
23 | C/C(CC(O)(C(F)(F)F)C(F)(F)F)=N\NC(N)=O | > 10 | > 10 | > 10 | > 10 | > 10 | > 10 | > 10 | > 10 | > 10 | > 10 | 
24 | O=c1[nH]c(Nc2ccccc2)nc2c1ncn2CC(O)CSCCO (stereo unspecified) | > 100 | > 100 | > 100 | > 100 | > 100 | > 100 | > 100 | > 100 | > 100 | > 100 | 
25 | Fc1ccc(C(OCCN2CCN(CCCc3ccccc3)CC2)c2ccc(F)cc2)cc1 | 14 | 11.7 | 17 | 18.9 | 14.3 | 13.9 | 12.6 | 15.9 | 12 | > 50.6 | 
26 | CC(=O)O[C@H]1CC(C)(C)C(=C=C/C(C)=C/C=C/C=C/C=C(C)/C=C2C=C(/C=C/[C@@]34O[C@]3(C)C[C@@H](O)CC4(C)C)C(=O)O/2)[C@](C)(O)C1 | 50.2 | > 100 | 41.9 | 20.7 | 49.5 | 4.88 | 34.5 | 23.2 | 15.9 | > 100 | 
27 | CCc1n[nH]c(=O)n1CCCCCCCCCCCCn1c(CC)n[nH]c1=O | > 100 | > 100 | 76 | > 100 | > 100 | > 100 | > 100 | > 100 | > 100 | > 100 | 
28 | CCOC(=O)c1ccc(-n2[nH]nc(C(N)=O)c2=O)cc1 | > 100 | > 100 | > 100 | > 100 | > 100 | > 100 | > 100 | > 100 | > 100 | > 100 | 
29 | COC1CC(N)(c2ccccc2)C(O)C(C)O1 (stereo unspecified) | > 100 | > 100 | > 100 | > 100 | > 100 | > 100 | > 100 | > 100 | > 100 | > 100 | 
30 | O=c1[nH]cc(NCCCl)c(=O)[nH]1 | > 100 | > 100 | > 100 | > 100 | > 100 | > 100 | > 100 | > 100 | > 100 | > 100 | 
